In test [1] the test system is Aedes aegypti (Rockefeller strain) mosquitoes. Briefly: Microinjection into female mosquitoes before blood feeding; observation for defective phenotypes (midgut, blood meal storage). It counts as in vivo. Particulars: 200 nL of 5.0 mM compound in 5% DMSO microinjected into four day old females; fed human blood one day later. The method, then:
Aedes aegypti (Rockefeller strain) mosquitoes were reared in standard conditions. Four day old female mosquitoes were microinjected with 200 nL of 5% DMSO (control) or the compound described in Example 1, i.e. 4-isopropyl-8-phenyl-1,3,4,6,6a,9b-hexahydrothiopyrano [3,4-e]isoindole-7,9(8H,9aH)-dione (5.0 mM in 5% DMSO), using Nanoject II (Drummond). The injected mosquitoes were recovered for one day in the environmental chamber and fed on warmed human blood through a membrane feeder. Twenty fully fed mosquitoes from each group were observed under a dissecting microscope for defective phenotypes, including midgut and primary follicle development in the ovaries during the first gonotrophic cycle.

For a further test, the system named is blood-fed mosquitoes. Kind of test: Evaluation of follicle size after microinjection into blood-fed mosquitos. It counts as in vivo, Aedes aegypti. Particulars: 200 nl of 0.7 mM compound microinjected one hour after blood feeding; ovaries dissected 48 h post blood meal; DMSO control 452.8±6.4 μm. The method, then: The mosquitos were reared in environmental chambers. Larvae were then fed with a mixture of tropical flakes, rat chow, liver powder, or cat food pellets. Adult pests were maintained on 10% sucrose. Four-day old mosquitos were allowed to feed on human blood supplemented with fresh ATP. One hour after blood feeding, the mosquitos were briefly chilled at 4° C. to immobilize. 200 nl of the compound, 4-isopropyl-8-phenyl-1,3,4,6,6a,9b-hexahydrothiopyrano [3,4-e]isoindole-7,9(8H,9aH)-dione, was diluted in water to a final concentration of 0.7 mM before use. Then the compound was microinjected with a microinjector into fully fed mosquitos. For each experiment, the mosquitos were also microinjected with 2% DMSO (control). Mosquitos were allowed to feed 10% sucrose, and 48 h post blood meal, ovaries were dissected from the injected mosquitos in 1×PBS under a microscope. Ovaries were teased to separate follicles, and the images were digitally captured for follicle length measurement.

Test [2] has as its system mosquito larvae (second instar). Briefly: Evaluation of mosquito larval mortality. It counts as in vivo, Aedes aegypti. The following applies: 0.2 mM in larval growth media, 24 hours of exposure. On the procedure:
Two-day-old second instar larvae were transferred to wells in a plate containing 1 ml of larval growth media. The 4-isopropyl-8-phenyl-1,3,4,6,6a,9b-hexahydrothiopyrano [3,4-e]isoindole-7,9(8H,9aH)-dione and DMSO (control) were added directly to the media and swirled. The final concentration of the 4-isopropyl-8-phenyl-1,3,4,6,6a,9b-hexahydrothiopyrano [3,4-e]isoindole-7,9(8H,9aH)-dione in each well was 0.2 mM, the DMSO concentration was 0.2%. The plates were kept in the environmental chamber. Mosquito larvae were examined under a microscope for any sign of mortality 24 hours after exposure. Data obtained from at least three biological replicates were statistically analyzed with the Bonferroni post tests.

The structures appear in SMILES notation.

Regarding `CC(C)[C@@H]1CSC[C@@H]2C1=CC[C@@H]1C(=O)N(c3ccccc3)C(=O)[C@@H]12` [4-isopropyl-8-phenyl-1,3,4,6,6a,9b-hexahydrothiopyrano [3,4-e]isoindole-7,9(8H,9aH)-dione], in test [1], the “blood-fed mosquitoes exhibiting the defect in the alimentary canal (blood meal misdirected into the ventral diverticulum)” value is reported as 40%. In the test on blood-fed mosquitoes, this compound registered a follicle size of 145.6±11.0 μm. Further, in test [2], the “number of mosquito larvae died” value was 18 out of 45 mosquito larvae. This compound showed a mosquito larvae died in test [2] (all control larvae survived) of 40%.

The record behind these values is US10370385B2, “Tricyclic mosquitocides and methods of making and using thereof” (The Arizona Board of Regents on Behalf of the University of …, priority 2014, dated 2019).
